For test [1], the system named is MCF7, hormone-independent human breast cancer cells. Briefly: Proliferation assay, MCF7. The class given is cell-based. Particulars: MCF7, 96 h, 4 days incubation, crystal violet. The gist of the method: (§1)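 Cells seeded ~5000/well, treated after 24 h with 0.01-30 μM compound (0.5% DMSO) for 4 days. Glutaraldehyde-fixed cells stained with crystal violet, absorbance at 595 nm; growth expressed as percent, normalized to zero-point plate (0%) and untreated cells (100%).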

Test [2] has as its system NCI-H460, human non-small-cell lung cancer cells. Briefly: Proliferation assay, H460. The class given is cell-based. Particulars: NCI-H460, 96 h, 4 days incubation, crystal violet. The gist of the method: as §1
For test [3], the system named is HCT 116, human colon cancer cells. Briefly: Proliferation assay, HCT116. The class given is cell-based. Particulars: HCT-116, 96 h, 4 days incubation, crystal violet. The source says: Cultivated human tumor cells (MCF7, hormone-independent human breast cancer cells, related to ATCC HTB22; NCI-H460, human non-small-cell lung cancer cells, ATCC HTB-177, HCT 116, human colon cancer cells, ATCC CCL-247; DU 145, hormone-independent human prostate cancer cells, ATCC HTB-81; MaTu-MDR, hormone-independent, multiple pharmaceutical agent-resistant human breast cancer cells, EPO-GmbH, Berlin) were flattened out at a density of about 5000 cells/measuring point, depending on the growth rate of the respective cells, in a 96-well multititer plate in 200 μl of the corresponding growth medium. After 24 hours, the cells of one plate (zero-point plate) were colored with crystal violet (see below), while the medium of the other plates was replaced by fresh culture medium (200 μl), to which the test substances were added in various concentrations (0 μm, as well as in the range of 0.01-30 μm; the final concentration of the solvent dimethyl sulfoxide was 0.5%). The cells were incubated for 4 days in the presence of test substances. The cell proliferation was determined by coloring the cells with crystal violet: the cells were fixed by adding 20 μl/measuring point of an 11% glutaric aldehyde solution for 15 minutes at room temperature. After three washing cycles of the fixed cells with water, the plates were dried at room temperature. The cells were colored by adding 100 μl/measuring point of a 0.1% crystal violet solution (the pH was set at 3 by adding acetic acid). After three washing cycles of the colored cells with water, the plates were dried at room temperature. The dye was dissolved by adding 100 μl/measuring point of a 10% acetic acid solution. The extinction was determined by photometry at a wavelength of 595 nm. The change of cell growth, in percent, was calculated by normalization of the measured values to the extinction values of the zero-point plate (=0%) and the extinction of the untreated (0 μm) cells (=100%).

Test [4] concerns DU 145, hormone-independent human prostate cancer cells. Briefly: Proliferation assay, DU145. It counts as cell-based. Particulars: DU-145, 96 h, 4 days incubation, crystal violet. The method, boiled down:
as §1

Test [5] concerns MaTu-ADR. Briefly: Proliferation assay, MaTu-ADR. It counts as cell-based. Particulars: Homo sapiens, 96 h, MaTu-ADR cells, 4 days incubation, crystal violet. The method, boiled down:
as §1

Test [6] has as its target T1, CDK2/CycE (Homo sapiens, UniProt P24941).
T1 construct: GST; purchased ProQinase GmbH, Freiburg; host or cells: baculovirus-infected insect cells (Sf9)
Briefly: CDK2/CycE Kinase Assay. The following applies: histone IIIS substrate, 33P-ATP, 15 minutes at 22° C. It counts as biochemical. The gist of the method:
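Recombinant GST-tagged CDK2/CycE from Sf9 cells (50 ng/point) was incubated with compound (0.01-100 μM) for 15 min at 22° C, pH 8.0, with 0.5 μM ATP plus ^33P-γ-ATP and histone IIIS as substrate, in 12.5% DMSO. Incorporated ^33P was counted after filter binding and washing.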

Test [7] deals with T2, CDK1/CycB (Homo sapiens, UniProt P06493).
T2 construct: GST; purchased ProQinase GmbH, Freiburg; host or cells: baculovirus-infected insect cells (Sf9)
T2 sequence (P06493 whole entry): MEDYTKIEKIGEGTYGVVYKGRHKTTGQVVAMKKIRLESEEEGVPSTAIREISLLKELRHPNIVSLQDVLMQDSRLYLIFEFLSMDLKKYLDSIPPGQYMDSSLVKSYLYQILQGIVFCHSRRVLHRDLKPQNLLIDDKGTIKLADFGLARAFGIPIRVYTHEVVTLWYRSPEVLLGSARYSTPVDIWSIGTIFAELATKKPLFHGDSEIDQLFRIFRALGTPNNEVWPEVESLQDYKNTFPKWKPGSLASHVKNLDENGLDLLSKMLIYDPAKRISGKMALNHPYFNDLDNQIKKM
T2 sequence (P14635 whole entry partner): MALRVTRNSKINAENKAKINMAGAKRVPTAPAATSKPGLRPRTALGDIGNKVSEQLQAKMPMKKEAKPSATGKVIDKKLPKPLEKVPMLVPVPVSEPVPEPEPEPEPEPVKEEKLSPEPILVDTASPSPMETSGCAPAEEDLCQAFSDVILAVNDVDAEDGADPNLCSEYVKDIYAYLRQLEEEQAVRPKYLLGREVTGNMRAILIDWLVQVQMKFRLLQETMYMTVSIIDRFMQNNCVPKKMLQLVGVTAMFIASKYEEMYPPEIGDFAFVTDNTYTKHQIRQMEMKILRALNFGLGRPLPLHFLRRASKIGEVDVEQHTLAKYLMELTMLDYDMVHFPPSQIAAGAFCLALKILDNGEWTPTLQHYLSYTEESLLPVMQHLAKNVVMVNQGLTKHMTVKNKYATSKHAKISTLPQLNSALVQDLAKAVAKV
Briefly: CDK1/CycB Kinase Assay. The class given is biochemical. The following applies: histone IIIS substrate, 33P-ATP, 15 minutes at 22° C.

Test [8] addresses T3, VEGF receptor tyrosine kinase-2 (Homo sapiens, UniProt P35968).
T3 construct: GST; made in house; host or cells: baculovirus-infected insect cells (Sf9)
Briefly: VEGF Receptor-2 Kinase Assay. Particulars: poly-(Glu4Tyr) substrate, 33P-ATP, 10 minutes at 22° C.; read-out: VEGF-R2 IC50. It counts as biochemical.

In test [9] the target is Human Carboanhydrase-2 (Homo sapiens, UniProt P00918). Briefly: Carboanhydrase Assay. The class given is biochemical. The following applies: 4-nitrophenyl acetate hydrolysis, 400 nm; read-out: Inhibition of Human Carboanhydrase-2 IC50. How it is done: 2 μl of the test compounds, dissolved in DMSO (100× the final concentration), in a concentration range of 0.03-10 μm (final), was pipetted as 4× determinations into the holes of a 96-hole microtiter plate. Holes that contained the solvent without test compounds were used as reference values (1. Holes without carboanhydrase for correction of the non-enzymatic hydrolysis of the substrate, and 2. Holes with carboanhydrase for determining the activity of the non-inhibited enzyme).
188 μl of assay buffer (10 mmol of Tris/HCl, pH 7.4, 80 mmol of NaCl), with or without 3 units/hole on carboanhydrase I or II, was pipetted into the holes of the microtiter plate.

pIC50: −log10 of the molar value. A value given as a limit tells only on which side of the number the result lay.

T3 sequence (P35968 20-1356): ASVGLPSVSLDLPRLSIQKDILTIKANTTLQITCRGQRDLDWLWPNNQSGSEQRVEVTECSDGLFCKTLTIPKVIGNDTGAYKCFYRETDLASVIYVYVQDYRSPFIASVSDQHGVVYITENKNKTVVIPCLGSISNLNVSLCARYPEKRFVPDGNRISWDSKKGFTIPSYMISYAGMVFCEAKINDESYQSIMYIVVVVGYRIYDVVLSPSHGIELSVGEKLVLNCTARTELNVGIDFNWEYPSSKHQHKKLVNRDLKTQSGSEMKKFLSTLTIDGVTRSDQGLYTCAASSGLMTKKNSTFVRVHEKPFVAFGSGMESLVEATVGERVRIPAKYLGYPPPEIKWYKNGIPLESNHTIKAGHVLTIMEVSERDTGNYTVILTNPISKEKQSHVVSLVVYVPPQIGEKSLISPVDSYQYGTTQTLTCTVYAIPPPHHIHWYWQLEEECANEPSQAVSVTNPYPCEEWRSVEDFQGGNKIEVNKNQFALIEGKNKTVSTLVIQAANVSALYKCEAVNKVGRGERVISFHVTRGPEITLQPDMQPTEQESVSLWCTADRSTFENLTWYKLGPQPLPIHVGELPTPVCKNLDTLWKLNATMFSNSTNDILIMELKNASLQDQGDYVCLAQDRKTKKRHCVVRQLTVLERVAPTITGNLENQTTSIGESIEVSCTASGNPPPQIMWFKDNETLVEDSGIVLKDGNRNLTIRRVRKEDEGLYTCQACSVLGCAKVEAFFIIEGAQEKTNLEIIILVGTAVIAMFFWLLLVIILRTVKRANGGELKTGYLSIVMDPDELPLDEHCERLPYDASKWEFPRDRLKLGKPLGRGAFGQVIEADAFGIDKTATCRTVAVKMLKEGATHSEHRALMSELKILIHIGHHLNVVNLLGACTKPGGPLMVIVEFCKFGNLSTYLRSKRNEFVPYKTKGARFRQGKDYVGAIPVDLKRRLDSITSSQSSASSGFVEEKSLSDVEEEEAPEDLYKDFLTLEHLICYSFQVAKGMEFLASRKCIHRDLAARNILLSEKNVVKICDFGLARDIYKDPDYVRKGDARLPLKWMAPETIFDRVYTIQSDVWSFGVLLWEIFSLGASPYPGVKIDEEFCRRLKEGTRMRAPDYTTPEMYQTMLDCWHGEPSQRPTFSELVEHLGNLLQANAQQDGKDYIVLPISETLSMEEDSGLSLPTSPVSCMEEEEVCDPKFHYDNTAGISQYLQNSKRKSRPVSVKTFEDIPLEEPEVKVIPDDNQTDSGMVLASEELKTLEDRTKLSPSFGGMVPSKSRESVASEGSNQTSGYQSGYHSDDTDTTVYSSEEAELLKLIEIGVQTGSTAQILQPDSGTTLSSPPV

`C[C@H](CO)Nc1nc(Nc2ccc(S(C)(=N)=O)cc2)ncc1Br` (mixture of isomers) [Example 1.0, (RS)-S-[4-({5-Bromo-4-[(R)-(2-hydroxy-1-methylethyl)amino]pyridimin-2-yl}amino)phenyl]-S-methyl sulfoximide]: the negative-log IC50 (pIC50) is 6.52 in test [1]; 5.92 in [2]; 6.40 in test [3]; 5.82 in test [4]; 5.80 in test [5]; > 8.00 in test [6]. Moreover, the pIC50 in [7] is 7.10; in [8] it was 7.40; in [9], < 5.00.

In general, pIC50 refers to the IC50 on a negative log10 scale, so that one unit is a factor of ten.

For the origin of these results see US7338958B2, “Sulfoximine-substituted pyrimidines as CDK-and/or VEGF inhibitors, their production and use as pharmaceutical agents” (Schering AG, priority 2003, dated 2008).
